Test results: ChEMBL document CHEMBL5523736, “The First Discovery of Marine Polyoxygenated Cembranolides as Potential Agents for the Treatment of Ulcerative Colitis” (J Med Chem, 2024)
Calls of active or inactive are those of the source. The calls are words filed in the database; no cut-off is given here.

test system: RAW264.7; assay: Antiinflammatory activity in mouse RAW264.7 cells assessed as inhibition of LPS-induced NO production at 20 uM incubated for 24 hrs relative to control; assay type: functional; settings: not given

Compared with `C=C1C(=O)O[C@]2(C)CC[C@@H]1C[C@@H]1O[C@@]1(C)C/C=C/[C@@](C)(O)CC[C@H]2OC(C)=O`, `C=C1C(=O)O[C@]2(C)CC[C@@H]1C[C@H](O)[C@@]1(C)CC[C@H](O1)[C@](C)(O)CC[C@H]2OC(C)=O` [QUERCIFORMOLIDE B] is lower in inhibition at 20 µM: 99.5% for the first, 16.3% for the second.

Compared with `C=C1C(=O)O[C@]2(C)CC[C@@H]1C[C@@H]1O[C@@]1(C)CC[C@H](OC(C)=O)[C@@]1(C)CC[C@@H]2O1`, `C=C1C(=O)O[C@]2(C)CC[C@@H]1C[C@H](OC(C)=O)[C@@]1(C)CC[C@H](O1)[C@](C)(O)CC[C@H]2O` is lower in inhibition at 20 µM: 36.7% for the first, 25.8% for the second.

First: C=C1C(=O)O[C@]2(C)CC[C@@H]1C[C@@H]1O[C@@]1(C)CC[C@H](O)[C@](C)(O)CCC2=O
Second: C=C1C(=O)O[C@]2(C)CC[C@@H]1C[C@@H]1O[C@@]1(C)C/C=C/[C@@](C)(OO)CCC2=O
The inhibition at 20 µM of the first is higher: 90% for the first, 48.7% for the second.

Going from `CNC(=N)NCCC[C@H](N)C(=O)O` [TILARGININE] to `C=C(C(=O)OC)[C@@H]1C/C=C(/C)[C@@H](O)CC/C(C)=C/CC[C@]2(C)O[C@H]2C1`, the inhibition at 20 µM rises from 27.4% to 79.3%.

Compared with `C=C1C(=O)O[C@]2(C)CC[C@@H]1C/C=C(\C)CC/C=C(\C)CC[C@@H]2O`, `C=C1C(=O)O[C@]2(C)CC[C@@H]1C[C@@H]1O[C@@]1(C)CC/C=C(\C)CC[C@H]2O` is lower in inhibition at 20 µM: 93.1% for the first, 86.7% for the second.

Going from `C=C(C(=O)OC)[C@@H]1CC[C@@](C)(O)[C@@H]2CC[C@@](C)(O2)[C@@H](OC(C)=O)CC[C@]2(C)O[C@H]2C1` [DENDRONPHOLIDE G] to `C=C(C(=O)OC)[C@@H]1CC[C@]2(C)O[C@@]2(O)CC/C(C)=C/CC[C@]2(C)O[C@@H]2C1`, the inhibition at 20 µM rises from -49% to 0%.

Compared with `C=C(C(=O)OC)[C@@H]1CC[C@@](C)(O)C(=O)CC/C(C)=C/CC[C@]2(C)O[C@H]2C1`, `C=C1C(=O)O[C@]2(C)CC[C@@H]1C[C@H](O)[C@@]1(C)CC/C=C(/CCC2=O)COO1` is lower in inhibition at 20 µM: 35.7% for the first, 34.4% for the second.

In the case of `C=C1C(=O)O[C@]2(C)CC[C@@H]1C[C@H](O)[C@@]1(C)CC[C@H](O1)C(=C)CCC2=O`, the inhibition at 20 µM is reported as 34%.

test system: RAW264.7; assay: Antiinflammatory activity in LPS-induced mouse RAW264.7 cells assessed as reduction in iNOS mRNA expression level at 20 uM by qRT-PCR analysis; assay type: functional, cell-based; settings: not given

In the case of `C=C1C(=O)O[C@]2(C)CC[C@@H]1C[C@@H]1O[C@@]1(C)CC[C@H](O)[C@](C)(O)CCC2=O`, the Activity is reported as “Active”.

test system: RAW264.7; assay: Antiinflammatory activity in LPS-induced mouse RAW264.7 cells assessed as reduction in TNF-alpha mRNA expression level at 20 uM by qRT-PCR analysis; assay type: functional, cell-based; settings: not given

With `C=C1C(=O)O[C@]2(C)CC[C@@H]1C[C@@H]1O[C@@]1(C)CC[C@H](O)[C@](C)(O)CCC2=O` the Activity was “Active”.

test system: RAW264.7; assay: Antiinflammatory activity in LPS-induced mouse RAW264.7 cells assessed as reduction in IL-1beta mRNA expression level at 20 uM by qRT-PCR analysis; assay type: functional, cell-based; settings: not given

For `C=C1C(=O)O[C@]2(C)CC[C@@H]1C[C@@H]1O[C@@]1(C)CC[C@H](O)[C@](C)(O)CCC2=O`, the Activity was “Active”.

test system: not listed separately; assay: Cytotoxicity against mouse RAW264.7 cells assessed as cell viability at 20 uM incubated for 24 hrs by CCK8 assay relative to control; assay type: toxicity, cell-based; settings: read-out: Activity

Compared with `C=C1C(=O)O[C@]2(C)CC[C@@H]1C[C@@H]1O[C@@]1(C)C/C=C/[C@@](C)(O)CC[C@H]2OC(C)=O`, `C=C1C(=O)O[C@]2(C)CC[C@@H]1C[C@H](O)[C@@]1(C)CC[C@H](O1)[C@](C)(O)CC[C@H]2OC(C)=O` [QUERCIFORMOLIDE B] is higher in viability at 24 h, 20 µM: 87.9% for the first, 103% for the second.

First: C=C1C(=O)O[C@]2(C)CC[C@@H]1C[C@@H]1O[C@@]1(C)CC[C@H](OC(C)=O)[C@@]1(C)CC[C@@H]2O1
Second: C=C1C(=O)O[C@]2(C)CC[C@@H]1C[C@H](OC(C)=O)[C@@]1(C)CC[C@H](O1)[C@](C)(O)CC[C@H]2O
The viability at 24 h, 20 µM of the first is lower: 103% for the first, 109% for the second.

First: C=C1C(=O)O[C@]2(C)CC[C@@H]1C[C@@H]1O[C@@]1(C)CC[C@H](O)[C@](C)(O)CCC2=O
Second: C=C1C(=O)O[C@]2(C)CC[C@@H]1C[C@@H]1O[C@@]1(C)C/C=C/[C@@](C)(OO)CCC2=O
The viability at 24 h, 20 µM of the first is lower: 89% for the first, 93.7% for the second.

Compared with `CNC(=N)NCCC[C@H](N)C(=O)O` [TILARGININE], `C=C(C(=O)OC)[C@@H]1C/C=C(/C)[C@@H](O)CC/C(C)=C/CC[C@]2(C)O[C@H]2C1` is higher in viability at 24 h, 20 µM: 92.7% for the first, 93.7% for the second.

First: C=C1C(=O)O[C@]2(C)CC[C@@H]1C/C=C(\C)CC/C=C(\C)CC[C@@H]2O
Second: C=C1C(=O)O[C@]2(C)CC[C@@H]1C[C@@H]1O[C@@]1(C)CC/C=C(\C)CC[C@H]2O
The viability at 24 h, 20 µM of the first is higher: 93.7% for the first, 92.8% for the second.

Compared with `C=C(C(=O)OC)[C@@H]1CC[C@@](C)(O)[C@@H]2CC[C@@](C)(O2)[C@@H](OC(C)=O)CC[C@]2(C)O[C@H]2C1` [DENDRONPHOLIDE G], `C=C(C(=O)OC)[C@@H]1CC[C@]2(C)O[C@@]2(O)CC/C(C)=C/CC[C@]2(C)O[C@@H]2C1` is higher in viability at 24 h, 20 µM: 83% for the first, 94% for the second.

Compared with `C=C(C(=O)OC)[C@@H]1CC[C@@](C)(O)C(=O)CC/C(C)=C/CC[C@]2(C)O[C@H]2C1`, `C=C1C(=O)O[C@]2(C)CC[C@@H]1C[C@H](O)[C@@]1(C)CC/C=C(/CCC2=O)COO1` is lower in viability at 24 h, 20 µM: 116% for the first, 94.5% for the second.

Work on `C=C1C(=O)O[C@]2(C)CC[C@@H]1C[C@H](O)[C@@]1(C)CC[C@H](O1)C(=C)CCC2=O` yielded a viability at 24 h, 20 µM of 89.5%.

test system: RAW264.7; assay: Antiinflammatory activity in mouse RAW264.7 cells assessed as inhibition of LPS-induced NO production incubated for 24 hrs; assay type: functional, cell-based; settings: RAW264.7, 24 h

`C=C1C(=O)O[C@]2(C)CC[C@@H]1C[C@@H]1O[C@@]1(C)C/C=C/[C@@](C)(O)CC[C@H]2OC(C)=O` and `C=C1C(=O)O[C@]2(C)CC[C@@H]1C[C@@H]1O[C@@]1(C)CC/C=C(\C)CC[C@H]2O` are within 1.5-fold of each other in IC50: 10.1 µM for the first, 13.1 µM for the second.

Going from `C=C1C(=O)O[C@]2(C)CC[C@@H]1C[C@@H]1O[C@@]1(C)CC[C@H](O)[C@](C)(O)CCC2=O` to `C=C1C(=O)O[C@]2(C)CC[C@@H]1C/C=C(\C)CC/C=C(\C)CC[C@@H]2O`, the IC50 rises from 1.98 µM to 12.7 µM (6.4-fold). The first is the more potent here.

With `CNC(=N)NCCC[C@H](N)C(=O)O` [TILARGININE] the IC50 was 31.7 µM.

test system: RAW264.7; assay: Antiinflammatory activity in LPS-induced mouse RAW264.7 cells assessed as reduction in IL-6 mRNA expression level at 20 uM by qRT-PCR analysis; assay type: functional, cell-based; settings: not given

In the case of `C=C1C(=O)O[C@]2(C)CC[C@@H]1C[C@@H]1O[C@@]1(C)CC[C@H](O)[C@](C)(O)CCC2=O`, the Activity is reported as “Active”.
